# Assay results from paper PMC9879939, “Synergy of ruthenium metallo-intercalator, [Ru(dppz)2(PIP)]^2+, with PARP inhibitor Olaparib in non-small cell lung cancer cells” (Scientific Reports, 2023).
# Values joined by “and” are separate entries in the source; they are usually repeats but may differ in a detail not shown here. Equal values may be shown once.
# Legend:
# [1] = test system: MRC5 normal human lung fibroblasts; test: MTT assay (cell viability); format: cell-based; settings: max tested 100 μM, combinations: Ru-PIP gradient with fixed Olaparib
# Method: (§1) Cells were seeded in 96-well plates at 5 × 10^3 cells/well and allowed to adhere overnight. […] For drug combination treatment, cells were treated with concentration gradient of Ru-PIP (3.125–100 µM) in combination with Olaparib (5 or 10 µM). After 24, 48 or 72 h incubation, 0.5 mg/ml thiazolyl blue tetrazolium bromide (MTT) dissolved in 1X PBS was added to each well and cells were incubated at 37 °C for 4 h. 100 µl of DMSO was added to each well to solubilize the reduced purple formazan crystals formed. Next, the absorbance at 570 nm (630 nm as reference wavelength) was measured using a microplate reader. The half maximal inhibitory concentration (IC50) for each compound was determined using GraphPad Prism software. Additionally, selectivity indices (SI) were determined by the ratio between IC50 of normal cells and that of cancer cells.
# [2] = test system: A549 lung cancer cells; test: MTT assay (cell viability; CI and SI derived from it); format: cell-based, human; settings: for IC50: A549, max tested 100 μM, combinations: Ru-PIP gradient with fixed Olaparib; for Selectivity Index (SI) = IC50 normal cells/IC50 cancer cells: MRC5 vs A549
# Method: as §1
# (§2) Based on the data obtained from MTT assay, combination indices (CI) were determined using Calcusyn and CompuSyn software (Biosoft, Cambridge, UK). This is based on the established drugs combination method by Chou and Talalay[30],[31]. CI values indicate the type of drugs interaction in which CI < 0.9 indicates synergism, CI = 0.9–1.0 indicates additive and CI > 1.0 indicates antagonism. GraphPad Prism software was used to generate a three-color scale based on CI values obtained, where synergism is represented by green, additive by yellow, and antagonism by red in which the colors of each CI value were interpolated in between these constraints accordingly.
# [3] = test system: H1975 lung cancer cells; test: as above; format: cell-based, human; settings: for IC50: H1975, max tested 100 μM, combinations: Ru-PIP gradient with fixed Olaparib; for Selectivity Index (SI) = IC50 normal cells/IC50 cancer cells: MRC5 vs H1975
# Method: as §1, §2
# [4] = test system: T24 bladder cancer cells; test: as above; format: cell-based, human; settings: for IC50: T24, max tested 100 μM, combinations: Ru-PIP gradient with fixed Olaparib; for Selectivity Index (SI) = IC50 normal cells/IC50 cancer cells: MRC5 vs T24
# Method: as §1, §2
# [5] = test system: A549 cells; test: Cell cycle analysis (PI staining, flow cytometry); format: cell-based, human; settings: Ru-PIP 25 µM, 24 h
# Method: Lung cancer cells were seeded in 6-well plate at density of 1 × 10^5 cells/well and allowed to adhere overnight. Cells were treated with Ru-PIP (25 µM), Olaparib (5 µM) or both. After 24 or 48 h incubations, cells were harvested, washed with 1X PBS twice, and fixed with ice-cold 70% ethanol at least overnight at − 20 °C. The fixed cells were collected by centrifugation at 1,000 rpm for 5 min and the resulting pellets were washed with 1X PBS twice. The samples were resuspended in 500 µl PBS and treated with 5 µl RNase A solution (10 mg/ml) for 15 min at RT. After incubation, the samples were stained with 2 µl of propidium iodide (PI) solution (5 mg/ml) at RT, in the dark. Samples were acquired, and cell cycle distribution was analyzed using NovoCyte flow cytometer and NovoExpress software. For each sample, a minimum of 10,000 cells were counted and analyzed.
# [6] = test system: A549 cells; test: Apoptosis annexin V-FITC assay; format: cell-based, human
# Method: Lung cancer cells were seeded in 6-well plate at 1 × 10^5 cells/well and allowed to adhere overnight. Cells were treated with Ru-PIP (25 µM), Olaparib (5 µM) or both. After 24 or 48 h incubations, cells were harvested, washed with 1X PBS twice and 500 µl of 1X binding buffer was added to the samples. After, the samples were incubated with 5 µl Annexin V-FITC (Invitrogen) for 20 min at RT. Prior to flow cytometric analysis, 5 µl of PI was added. Samples were acquired was analyzed using NovoCyte flow cytometer and NovoExpress software. For each sample, a minimum of 10,000 cells were counted and analyzed.
# [7] = test system: A549 spheroids; test: Spheroids growth inhibition studies; format: cell-based, human; settings: Ru-PIP 25 µM; for structural integrity of pre-formed spheroids: Olaparib 5 µM or both, 12 days after treatment initiation
# Method: Spheroids establishment was attempted for A549 lung cancer cells using hanging drop method. 20 µL of cell suspension containing 2000, 4000, 6000, 8000 and 10,000 cells were dropped onto the surface of petri dish lid and incubated at 37 °C, such that each drop will contain single spheroid. After three days of incubation, each spheroid formed was transferred onto agarose-coated (50 µL, 0.6%) 96-well plates containing 80 µL growth media and further incubated for 15 days at 37 °C, such that each well contained a single spheroid. Formation of spheroids was observed and imaged every three days using a light microscope with a 4 × objective lens connected to a digital camera. During growth, 50% of the media was replaced every three days. The growth in volume of each spheroid was determined according to a published method. At least six spheroids were grown per seeding density for each independent experiment.
# Spheroids were grown as described initially. Initial cell seeding density was chosen such that each spheroid reached a diameter of approximately 400 μm after three days (4,000 cells/well for A549 cells). After spheroids formation, spheroids were incubated with Ru-PIP (25 µM), Olaparib (5 µM) or both for a period of 12 days. The structural integrity of spheroids upon treatment was observed and imaged for every three days using a light microscope with a 4 × objective lens connected to a digital camera, and the volume of each spheroid was measured according to a published method. Prior to imaging, 50% of treatment-containing medium was replaced (every three days). At least six spheroids were grown per treatment for each independent experiment.
# [8] = test system: A549, H1975 and T24 cells; test: MTT assay, summary statements over the cancer cell lines; format: cell-based, human
# Method: as §1
# [9] = in vivo; settings: zebrafish, in vivo
# Method: (§3) The newly fertilized eggs at less than 1 hpf (hours post fertilization) were collected, washed with deionized water and incubated at RT (28 ± 1 °C) in Danio-SprintM embryo media. […] Untreated control consisting of Danio-SprintM embryo media containing 0.1% DMSO. 24 embryos were used in total for each concentration per treatment of two independent experiments (n = 24). The zebrafish embryos development was observed and imaged using a light microscope attached to a digital camera at 24, 48, 72 and 96 hpf (hours post fertilization). Four lethal endpoints were evaluated including coagulated embryos, lack of somite formation, non-detachment of the tail and lack of heartbeat. All these characteristics were recorded every 24 hpf, except heartbeat, which is visible after 48 hpf. […] Hatching which is also considered as a sensitive endpoint toxicity parameter was also observed in which hatching normally occurs at 48 to 72 hpf.
# [10] = test system: zebrafish embryos; test: Acute toxicity test on zebrafish embryos (OECD Test No. 236); settings: zebrafish embryos
# Method: as §3
# [11] = test system: A549 cells; test: Wound healing assay; format: cell-based, human
# Method: Lung cancer cells were seeded at density of 5 × 10^5 cells/well in a 6-well plate and were incubated in the incubator until a confluent monolayer of cells formed. After serum-starved for 4 h, a straight scratch was made in each well with a sterile 200 µl pipette tip, solution was removed, and each well was washed with 1X PBS twice. Cells were treated with Ru-PIP (25 µM), Olaparib (5 µM) or both. Cells migration in the wound scratch area was photographed at 0, 24, 48 and 72 h timepoints. Images were photographed at 10 × magnification using a camera attached microscope and were analyzed using ImageJ software. The percentage of wound scratch closure was determined by measuring the reduction in the wound area at each time point by comparing to 0 h (100%).
# [12] = 24 h, Ru-PIP 25 µM or Olaparib 5 µM
structure (smiles),measurement,setting,value
"N.N.[Cl][Pt][Cl] [Cisplatin, cis-diamminedichloroplatinum(II)]",IC50,[1]; 24 h,13.5 ± 2.4 µM
same,IC50,[1]; 48 h,9.5 ± 1.2 µM
same,IC50,[1]; 72 h,7.4 ± 2 µM
same,IC50,[2]; 24 h,6.6 ± 2 µM
same,IC50,[2]; 48 h,4.8 ± 0.5 µM
same,IC50,[2]; 72 h,2.9 ± 1.2 µM
same,IC50,[3]; 24 h,26.6 ± 9.9 µM
same,IC50,[3]; 48 h,20 ± 6.7 µM
same,IC50,[3]; 72 h,13.5 ± 5.7 µM
same,IC50,[4]; 24 h,59.6 ± 7 µM
same,IC50,[4]; 48 h,20.8 ± 7.2 µM
same,IC50,[4]; 72 h,7.3 ± 1.1 µM
O=C(c1cc(Cc2n[nH]c(=O)c3ccccc23)ccc1F)N1CCN(C(=O)C2CC2)CC1 [Olaparib],cell cycle profile,[5]; Olaparib 5 µM or both,comparable cell cycle profile with the untreated control
same,levels of apoptotic cells,[6]; [12],comparable levels of apoptotic cells with untreated control
same,structural integrity of pre-formed spheroids,[7],remained structurally intact
same,IC50,"[1]; Homo sapiens, 24 h",> 100 µM
same,IC50,"[1]; Homo sapiens, 48 h",> 100 µM
same,IC50,"[1]; Homo sapiens, 72 h",> 100 µM
same,IC50,"[8]; Homo sapiens, 72 h, A549, H1975 and T24 cells together, read-out: 72 h IC50 on the tested cancer cells",> 71.7 µM
same,LC50 at 96 h,[9],> 100 µg/mL
same,morphological changes of embryos,[10]; > 25 mg/L,"substantial morphological abnormalities of pericardial edema, yolk sac edema and spinal deformity"
same,IC50,"[2]; Homo sapiens, 24 h",> 100 µM
same,IC50,"[2]; Homo sapiens, 48 h",> 100 µM
same,IC50,"[2]; Homo sapiens, 72 h",> 100 µM
same,IC50,"[3]; Homo sapiens, NCI-H1975, 24 h",> 100 µM
same,IC50,"[3]; Homo sapiens, NCI-H1975, 48 h",> 100 µM
same,IC50,"[3]; Homo sapiens, NCI-H1975, 72 h",71.7 ± 11.8 µM
same,Selectivity Index (SI) = IC50 normal cells/IC50 cancer cells,[3]; 72 h,>1.3
same,IC50,"[4]; Homo sapiens, 24 h",> 100 µM
same,IC50,"[4]; Homo sapiens, 48 h",> 100 µM
same,IC50,"[4]; Homo sapiens, 72 h",> 100 µM
same,impact on cell migration,[11]; Olaparib 5 µM,negligible impact on cell migration
"[Ru+2].c1ccc(-c2nc3c4cccnc4c4ncccc4c3[nH]2)cc1.c1ccc2nc3c4cccnc4c4ncccc4c3nc2c1.c1ccc2nc3c4cccnc4c4ncccc4c3nc2c1 [Ru-PIP, [Ru(dppz)2(PIP)]^2+]",increase in G1 phase compared to control,[5],16.1%
same,levels of apoptotic cells,[6]; [12],comparable levels of apoptotic cells with untreated control
same,levels of apoptotic cells,"[6]; 48 h, Ru-PIP 25 µM alone or with Olaparib 5 µM",increase in apoptotic cells was observed
same,spheroid growth,[7]; 12 days,prevented spheroid growth
same,structural integrity of pre-formed spheroids,[7],remained structurally intact
same,IC50,[1]; 24 h,> 100 µM
same,IC50,[1]; 48 h,91 ± 7.9 µM
same,IC50,[1]; 72 h,> 100 µM
same,selectivity indices (SI),"[8]; 72 h treatments, A549, H1975 and T24 cells vs normal MRC5 cells",> 1.6
same,embryos showing yolk sac edema,"[10]; 50 mg/L Ru-PIP alone, 96 hpf",33%
same,embryos' hatching prevented,[10]; 100 mg/L,~100%
same,96 h LC50,[10]; 96 h treatment,57.5 µg/mL and 55.5 µg/mL
same,survival and morphological changes of embryos,[10]; < 25 mg/L,the embryos survive without any morphological defects
same,IC50,[2]; 24 h,34.5 ± 10.5 µM
same,IC50,[2]; 48 h,19.4 ± 3.5 µM
same,IC50,[2]; 72 h,11.4 ± 0.3 µM
same,Selectivity Index (SI) = IC50 normal cells/IC50 cancer cells,[2]; 24 h,>2.8
same,Selectivity Index (SI) = IC50 normal cells/IC50 cancer cells,[2]; 48 h,4.6
same,Selectivity Index (SI) = IC50 normal cells/IC50 cancer cells,[2]; 72 h,> 8.7
same,IC50,[3]; 24 h,> 100 µM
same,IC50,[3]; 48 h,95.1 ± 2.9 µM
same,IC50,[3]; 72 h,59.4 ± 11.6 µM
same,Selectivity Index (SI) = IC50 normal cells/IC50 cancer cells,[3]; 48 h,0.9
same,Selectivity Index (SI) = IC50 normal cells/IC50 cancer cells,[3]; 72 h,>1.6
same,Selectivity Index (SI) = IC50 normal cells/IC50 cancer cells,[4]; 24 h,>2.2
same,Selectivity Index (SI) = IC50 normal cells/IC50 cancer cells,[4]; 48 h,4.0
same,Selectivity Index (SI) = IC50 normal cells/IC50 cancer cells,[4]; 72 h,>6.3
same,IC50,[4]; 24 h,45.1 ± 6.2 µM
same,IC50,[4]; 48 h,22.7 ± 2.8 µM
same,IC50,[4]; 72 h,15.8 ± 2.9 µM
same,wound closure,"[11]; Ru-PIP 25 µM, time point not stated (untreated 100% closed at 72 h)",88%
